The record followed here is patent US11091517B2, “Peptide derivative and pharmaceutical composition containing same” (TOKUSHIMA UNIVERSITY, priority 2017, dated 2021).

Like-named read-outs stand apart in the source and are kept apart here. *1 amine or outer side, *2 acyl side, *3 side chain or, on linkers, in order; H or OH if unused. Where a SMILES comes first, the peptide text is derived from it. Bridges are numbered along the chain shown (N, C = ends). NH(CH2)4NH = C(CCN[*:2])CN[*:1]

The test system of one series is BIG3 phosphorylation. The series is described as follows: BIG3 phosphorylation (Ser305, Ser1208) in SK-BR-3 and KPL-4 cells, immunoblot. It is filed as cell-based, human. The conditions noted are these: SK-BR-3 and KPL-4, 30 minutes; 10 μM H-89, 100 μg/mL trastuzumab, 10 nM lapatinib. On the technique in general: A western blot detects proteins with antibodies after separation by electrophoresis.

The subject of a further series is PP1Cα. Briefly: PP1Cα activity of BIG3 immunoprecipitates from SK-BR-3 cells. It is filed as cell-based, human. The conditions noted are these: SK-BR-3, 24 hours; 10 μM H-89, 100 μg/mL trastuzumab, 10 nM lapatinib.
The next series has as its target T1, PKA (Homo sapiens, UniProt P17612).
T1 construct: endogenous in cells; host or cells: SK-BR-3
The series is described as follows: PKA activity of BIG3 immunoprecipitates from SK-BR-3 cells. The format is cell-based.

The target of the next series is T2, chymotrypsin (Bos taurus, UniProt P00766).
T2 construct: purchased Sigma C7761
Briefly: Chymotrypsin resistance (HPLC). As to conditions: 1 μg chymotrypsin, 5 μg peptide, 37° C., 24 hours. The format is in vitro ADME. The procedure:
The chromatograms for double stapled ERAP No. 45 (A) and double stapled ERAP No. 46 (B), when a double stapled ERAP was reacted with chymotrypsin at 37° C. for 24 hours, are shown. In the experiment, the double stapled ERAP-chymotrypsin reaction solutions were subjected to high performance liquid chromatography (reverse-phase column, 0.3 mL/min flow rate, gradient elution (solution A: 0.1% trifluoroacetic acid; solution B: 0.1% trifluoroacetic acid/acetonitrile, A/B=90/10 (0-20 min) to 40/60 (20-80 min))), and detection was carried out by UV at 210 nm.
Chymotrypsin resistance was analyzed by adding 1 μg of chymotrypsin (#C7761, Sigma) and 5 μg of double stapled ERAP in a buffer (50 mM Tris-HCl; pH 8.0, 10 mM CaCl2), allowing this to react at 37° C. for 24 hours, and then subjecting the whole amount to high-performance liquid chromatography (HPLC). For the HPLC, a reverse-phase column (Inertsil Peptides C18 250×3.0 mm I.D.; GL Science, Tokyo, Japan) was used, gradient elution was performed using Solution A (0.1% trifluoroacetic acid) and Solution B (0.1% trifluoroacetic acid/acetonitrile) (A/B=90/10 (0-20 min), 90/10-40/60 (20-80 min)) at a flow rate of 0.3 mL/min, and a chromatogram for each double stapled ERAP was obtained by UV detection at 210 nm.

A further series deals with SK-BR-3. The format is cell-based, human. As to conditions: 96 h. The procedure: (§1) For the single stERAP and double stERAP #46, peptides were added at a total of eleven concentrations prepared by three-fold serial dilution starting from 20 μM. For the double stERAP #45, peptides were added at a total of eight concentrations prepared by two-fold serial dilation starting from 50 μM. The number of viable cells were measured 96 hours after the peptide addition, and relative values thereof were calculated based on the negative control cells without peptide addition and plotted. Experiments using double stERAP #45 on the SW982 cell line were not carried out.
(§2) MDA-MB-231 cells and SW982 cells were cultured using Leibovitz's L-15 medium (Thermo Fisher Scientific) at 37° C. without CO2 concentration control. All media were used by supplementing 10% FBS (Thermo Fisher Scientific) and a 1% antibiotic/antimycotic solution (Wako Pure Chemical, Osaka, Japan).
(§3) SK-BR-3 cells, BT-20 cells, and MDA-MB-231 cells were seeded into 48-well plates at 1×10^4 cells/200 μL in each well, and SW982 cells were seeded into 48-well plates at 0.5×10^4 cells/200 μL in each well. 48 hours later, the medium in each well was exchanged to a medium supplemented with a peptide (single stERAP and double stERAP #46: three-fold serial dilution from 20 μM, double stERAP #45: two-fold serial dilution starting from 50 μM), and after culturing for another 96 hours, the level of cell growth was measured using the Cell Counting Kit-8 (Dojindo, Kumamoto, Japan). Data were obtained from three independent experiments, a graph (mean±standard deviation) was produced using a graphing and data analyzing software SigmaPlot (Systat Software, San Jose, Calif., USA), and the 50% inhibition concentration (IC50) of the peptide against cell growth was calculated.

The next series relates to MDA-MB-231. The format is cell-based, human. As to conditions: 96 h. The procedure: as §1, §2, §3
Another series deals with BT-20. It is filed as cell-based, human. The conditions noted are these: 96 h. As to the method:
as §1, §2, §3

Another series concerns MCF-7 cells. The format is cell-based, human. The conditions noted are these: for inhibition rate on estrogen-dependent cell growth: 96 h.
The target in the next series is T3, BIG3-PHB2 interaction (Homo sapiens, UniProt Q99623).
T3 construct: endogenous in cells; host or cells: MCF-7
T3 sequence (Q99623 2-299 limits assumed): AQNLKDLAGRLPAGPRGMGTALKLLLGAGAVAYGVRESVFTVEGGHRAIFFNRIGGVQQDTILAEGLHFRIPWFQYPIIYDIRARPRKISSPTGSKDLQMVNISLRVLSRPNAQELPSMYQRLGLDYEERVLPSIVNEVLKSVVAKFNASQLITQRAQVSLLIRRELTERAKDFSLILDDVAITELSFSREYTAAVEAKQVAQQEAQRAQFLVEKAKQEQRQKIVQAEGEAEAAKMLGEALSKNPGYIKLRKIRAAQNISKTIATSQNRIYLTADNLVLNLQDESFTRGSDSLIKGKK
Briefly: Inhibition of BIG3-PHB2 interaction in MCF-7 cells (immunoprecipitation, Western blotting). The format is cell-based. The conditions noted are these: MCF7, 96 hours, 10 nM estrogen, read-out: inhibition rate of BIG3-PHB2 binding. The procedure:
(A, B) Inhibitory effect of double stapled ERAP No. 46 on BIG3-PHB2 interaction in MCF-7 cells was evaluated by Western blotting. […] Then, the cells were lysed, immunoprecipitation was performed using an anti-BIG3 antibody, and immunoblot analyses were performed using the antibodies indicated in the drawing. The binding inhibition rates are expressed as proportions to the band area for PHB2 in untreated cells which is set as 100.
For immunoblot analyses, after performing SDS-PAGE, the membranes blotted with proteins were blocked with 4% BlockAce solution (Dainippon Pharmaceutical, Osaka, Japan) for 3 hours and then incubated to react for 12 hours with antibodies against BIG3 (1:1,000) and PHB2 (1:1,000) (Abcam, Cambridge, UK). After allowing interaction with HRP-labeled secondary antibodies (anti-rat IgG-HRP for BIG3, 1:5,000; and anti-rabbit IgG-HRP for PHB2, 1:1,000) (Santa Cruz Biotechnology, Dallas, Tex., USA) for 1 hour, the blots were developed with the Enhanced Chemiluminescence (ECL) system (GE Healthcare, Buckinghamshire, UK) and scanned using the Image Reader LAS-3000 mini (Fujifilm, Tokyo, Japan). […]

The next series deals with SW982. It is filed as cell-based, human. As to conditions: 96 h. As to the method: as §1, §2, §3
Series [1] concerns PHB2 (Ser39) phosphorylation. The series is described as follows: PHB2 (Ser39) phosphorylation in SK-BR-3 cells, immunoblot. The format is cell-based, human. As to conditions: SK-BR-3, presence of 1 μM stERAP; 100 μg/mL trastuzumab, 10 nM lapatinib.
For a further series, the system named is PKCα. Briefly: PKCα activity of PKCα immunoprecipitates from SK-BR-3 cells. It is filed as cell-based, human. The conditions noted are these: SK-BR-3, 10 nM lapatinib in the presence of stERAP, 24 hours. As to the method: (A) Immunoblots are shown which indicate that PHB2 (Ser39) is phosphorylated in a PKCα-dependent manner in a HER2-positive breast cancer cell line. SK-BR-3 cells in which PKCα expression was suppressed by the siRNA method were treated for 24 hours with 1 μM stERAP, then cell lysate thereof was subjected to immunoprecipitation using an anti-PHB2 antibody, and immunoblot analyses were performed using the antibodies shown in the drawing. (B) PKCα activity by EGFR signaling in SK-BR-3 cells is shown. SK-BR-3 cells were treated for 24 hours with 1 μM stERAP, and with 10 nM lapatinib in the presence of stERAP, cell lysates thereof were subjected to immunoprecipitation using an anti-PKCα antibody, and PKCα activities were calculated using CREBtide as a substrate. Data represent the mean±standard error of three independent experiments.
The activities of protein kinase A (PKA) and protein kinase C alpha (PKCα) were measured by reacting the immunoprecipitates of BIG3 and PKCα with a synthetic substrate CREBtide ([…]) and 0.5 mM ATP in a kinase buffer (25 mM Hepes, pH 7.2, 25 mM MgCl2, 5 mM EDTA, 5 mM EGTA, 0.25 mM DTT) at 30° C. for 30 minutes, and by using an ADP-Glo kinase assay Kit (Promega, Fitchburg, Wis., USA).

The subject of a further series is HER2-Shc interaction. Briefly: HER2-Shc interaction, immunoprecipitation with anti-HER2 antibody. It is filed as cell-based, human. As to conditions: SK-BR-3, 2 μM AZ3146 and 1 μM stERAP, 24 hours.
The next series relates to HER2-HER3 interaction. Briefly: HER2-HER3 interaction, immunoprecipitation with anti-HER2 antibody. The format is cell-based, human. The conditions noted are these: SK-BR-3, 2 μM AZ3146 and 1 μM stERAP, 24 hours.

Regarding `O=S(=O)(NCCNC/C=C/c1ccc(Br)cc1)c1cccc2cnccc12` [H-89], in the series with BIG3 phosphorylation, the “suppression of BIG3 phosphorylation (Ser305 and Ser1208)” value is given as “nearly completely suppressed”. Moreover, the “inhibition rate for PP1Cα activity” value in the series with PP1Cα was 96%. Moreover, the “inhibition rate for PKA activity” value against PKA (SK-BR-3, 24 hours, 10 μM H-89, 100 μg/mL trastuzumab, 10 nM lapatinib) was found to be 100%.

Take `CSCC[C@H](NC(=O)[C@H](CCC(N)=O)NC(C)=O)C(=O)N[C@H]1CCC(=O)NCCCCNC(=O)CC[C@@H](C(=O)N[C@H]2CCC(=O)NCCCCNC(=O)CC[C@@H](C(=O)N[C@@H](CCCNC(=N)N)C(N)=O)NC(=O)[C@H](CCCNC(=N)N)NC(=O)[C@H](CC(C)C)NC(=O)[C@H](CCC(N)=O)NC2=O)NC(=O)[C@H](CC(C)C)NC(=O)[C@H](CC(=O)O)NC(=O)[C@H](CO)NC1=O` [double stapled ERAP No. 45] (Ac-QMESDLEEQLRER-NH2; linker 3-7, 8-12 via NH(CH2)4NH): on chymotrypsin, the “degradation by chymotrypsin treatment (chromatogram)” value is “several degradation products”. Further, the IC50 with SK-BR-3 came to 2800 nM; with MDA-MB-231, 23700 nM; in the series on BT-20 it was 8600 nM; with MCF-7 cells, 2320 nM. Further, the “inhibition rate on estrogen-dependent cell growth” value in the series with MCF-7 cells (1 μM) is listed as 21%.

Take `CSCC[C@H](NC(=O)[C@H](CCC(N)=O)NC(C)=O)C(=O)N[C@H]1CCC(=O)NCCCCNC(=O)CC[C@@H](C(=O)N[C@@H](CC(C)C)C(=O)N[C@@H](CCC(N)=O)C(=O)N[C@H]2CCC(=O)NCCCCNC(=O)CC[C@@H](C(N)=O)NC(=O)[C@H](CCCNC(=N)N)NC(=O)[C@H](CCC(N)=O)NC(=O)[C@H](CCCNC(=N)N)NC2=O)NC(=O)[C@H](CC(C)C)NC(=O)[C@H](CC(=O)O)NC(=O)[C@H](CO)NC1=O` [double stapled ERAP No. 46] (Ac-QMESDLELQERQRE-NH2; linker 3-7, 10-14 via NH(CH2)4NH): at BIG3-PHB2 interaction (1 μM), the inhibition at 1 µM was 60%. Further, the inhibition at 10 µM at BIG3-PHB2 interaction (10 μM) came out at 95%. In addition, the “degradation by chymotrypsin treatment (chromatogram)” value at chymotrypsin was “hardly showed its degradation”. In addition, the concentration for half-maximal inhibition (IC50) was 20 nM in the series with SK-BR-3; 143 nM in the series on MDA-MB-231; 74 nM in the series with BT-20; 26 nM in the series on SW982; 430 nM with MCF-7 cells. For the same compound, the “inhibition rate on estrogen-dependent cell growth” value with MCF-7 cells (10 μM) is recorded as 91%.

In the case of `CS(=O)(=O)CCNCc1ccc(-c2ccc3ncnc(Nc4ccc(OCc5cccc(F)c5)c(Cl)c4)c3c2)o1` [lapatinib], the “suppression of BIG3 phosphorylation (Ser305 and Ser1208)” value in the series with BIG3 phosphorylation is given as “not so involved in the suppression of BIG3 phosphorylation”. The “inhibition rate for PP1Cα activity” value in the series with PP1Cα is “about 15%”. In [1], the “decrease of PHB2 (Ser39) phosphorylation” value is on record as “nearly completely suppressed”. Further, on PKA (SK-BR-3, read-out: inhibition rate for PKA activity), the inhibition at 0.01 µM is around 15%. In addition, the PKCα activity inhibition entry in the series on PKCα is recorded as “approximately 80%”.

On to AZ3146, for which, in the series with HER2-Shc interaction, the “effect on stERAP inhibition of HER2-Shc interaction” value was “nearly completely canceled the inhibitory effects”. Besides, the “effect on stERAP inhibition of HER2-HER3 interaction” value in the series with HER2-HER3 interaction is recorded as “nearly completely canceled the inhibitory effects”.

One may read the IC50 as the concentration that gives 50% inhibition. A higher IC50 goes with a need for much substance. The term inhibition denotes the share of the control response that was lost under treatment.
